# Laboratory results taken from the supplement of paper PMC10307832.
# Experiments:
# Test in all cases: relative viability (nuclei count vs DMSO), 5 days (fraction); higher = more cells survive
# 201T = system: 201T
# Procedure, shortened: (§1)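 Relative viability was taken as the ratio of nuclei in treated wells to nuclei in vehicle wells. Lung cancer cell lines in 1536-well plates received compounds by pin tool one day after seeding, either one drug alone or a fixed anchor-drug dose plus five library-drug doses (not always all listed) in √10 steps. Nuclei were counted on 4× images after 5 days of treatment, and values are medians of duplicate plates.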
# ABC-1 = system: ABC-1
# Procedure, shortened: as §1
# CAL-12T = system: CAL-12T
# Procedure, shortened: as §1
# COR-L23 = system: COR-L23
# Procedure, shortened: as §1
# HOP-62 = system: HOP-62
# Procedure, shortened: as §1
# LC-2-ad = system: LC-2-ad
# Procedure, shortened: as §1
# LCLC-103H = system: LCLC-103H
# Procedure, shortened: as §1
# NCI-H1355 = system: NCI-H1355
# Procedure, shortened: as §1
# NCI-H1395 = system: NCI-H1395
# Procedure, shortened: as §1
# NCI-H1651 = system: NCI-H1651
# Procedure, shortened: as §1
# NCI-H1666 = system: NCI-H1666
# Procedure, shortened: as §1
# NCI-H1993 = system: NCI-H1993
# Procedure, shortened: as §1
# NCI-H2085 = system: NCI-H2085
# Procedure, shortened: as §1
# NCI-H2170 = system: NCI-H2170
# Procedure, shortened: as §1
# NCI-H2228 = system: NCI-H2228
# Procedure, shortened: as §1
# NCI-H2347 = system: NCI-H2347
# Procedure, shortened: as §1
# NCI-H23 = system: NCI-H23
# Procedure, shortened: as §1
# NCI-H322M = system: NCI-H322M
# Procedure, shortened: as §1
# NCI-H520 = system: NCI-H520
# Procedure, shortened: as §1
# NCI-H647 = system: NCI-H647
# Procedure, shortened: as §1
# NCI-H661 = system: NCI-H661
# Procedure, shortened: as §1
# NCI-H838 = system: NCI-H838
# Procedure, shortened: as §1
smiles,measurement,setting,value
O=C(O)CCCCC(CCSCc1ccccc1)SCc1ccccc1 (centres undefined) [CPI-613] + Cc1nc(Nc2ncc(C(=O)Nc3c(C)cccc3Cl)s2)cc(N2CCN(CCO)CC2)n1 [Dasatinib] (partner 0.075 µM),relative viability,201T; first compound 5 µM,0.553
same,relative viability,201T; first compound 15.81 µM,0.527
same,relative viability,201T; first compound 50 µM,0.488
same,relative viability,201T; first compound 158.11 µM,0.352
same,relative viability,201T; first compound 500 µM,0.303
same,relative viability,ABC-1; first compound 5 µM,0.561
same,relative viability,ABC-1; first compound 50 µM,0.527
same,relative viability,ABC-1; first compound 158.11 µM,0.232
same,relative viability,ABC-1; first compound 500 µM,0.196
same,relative viability,CAL-12T; first compound 5 µM,0.398
same,relative viability,CAL-12T; first compound 15.81 µM,0.454
same,relative viability,CAL-12T; first compound 50 µM,0.263
same,relative viability,CAL-12T; first compound 158.11 µM,0.0331
same,relative viability,CAL-12T; first compound 500 µM,0.0093
same,relative viability,COR-L23; first compound 5 µM,0.568
same,relative viability,COR-L23; first compound 15.81 µM,0.493
same,relative viability,COR-L23; first compound 50 µM,0.485
same,relative viability,COR-L23; first compound 158.11 µM,0.334
same,relative viability,COR-L23; first compound 500 µM,0.0383
same,relative viability,HOP-62; first compound 5 µM,0.625
same,relative viability,HOP-62; first compound 15.81 µM,0.68
same,relative viability,HOP-62; first compound 50 µM,0.659
same,relative viability,HOP-62; first compound 158.11 µM,0.521
same,relative viability,HOP-62; first compound 500 µM,0.0443
same,relative viability,LC-2-ad; first compound 5 µM,0.488
same,relative viability,LC-2-ad; first compound 15.81 µM,0.51
same,relative viability,LC-2-ad; first compound 50 µM,0.573
same,relative viability,LC-2-ad; first compound 158.11 µM,0.259
same,relative viability,LC-2-ad; first compound 500 µM,0.0544
same,relative viability,LCLC-103H; first compound 5 µM,0.463
same,relative viability,LCLC-103H; first compound 15.81 µM,0.472
same,relative viability,LCLC-103H; first compound 50 µM,0.41
same,relative viability,LCLC-103H; first compound 158.11 µM,0.422
same,relative viability,LCLC-103H; first compound 500 µM,0.271
same,relative viability,NCI-H1355; first compound 5 µM,0.682
same,relative viability,NCI-H1355; first compound 15.81 µM,0.697
same,relative viability,NCI-H1355; first compound 50 µM,0.701
same,relative viability,NCI-H1355; first compound 158.11 µM,0.53
same,relative viability,NCI-H1355; first compound 500 µM,0.375
same,relative viability,NCI-H1395; first compound 5 µM,0.397
same,relative viability,NCI-H1395; first compound 15.81 µM,0.352
same,relative viability,NCI-H1395; first compound 50 µM,0.414
same,relative viability,NCI-H1395; first compound 158.11 µM,0.409
same,relative viability,NCI-H1395; first compound 500 µM,0.358
same,relative viability,NCI-H1651; first compound 5 µM,0.348
same,relative viability,NCI-H1651; first compound 15.81 µM,0.387
same,relative viability,NCI-H1651; first compound 50 µM,0.416
same,relative viability,NCI-H1651; first compound 158.11 µM,0.282
same,relative viability,NCI-H1651; first compound 500 µM,0.123
same,relative viability,NCI-H1666; first compound 5 µM,0.808
same,relative viability,NCI-H1666; first compound 15.81 µM,0.858
same,relative viability,NCI-H1666; first compound 50 µM,0.749
same,relative viability,NCI-H1666; first compound 158.11 µM,0.386
same,relative viability,NCI-H1666; first compound 500 µM,0.18
same,relative viability,NCI-H1993; first compound 5 µM,0.495
same,relative viability,NCI-H1993; first compound 15.81 µM,0.262
same,relative viability,NCI-H1993; first compound 50 µM,0.605
same,relative viability,NCI-H1993; first compound 158.11 µM,0.522
same,relative viability,NCI-H1993; first compound 500 µM,0.369
same,relative viability,NCI-H2085; first compound 5 µM,0.267
same,relative viability,NCI-H2085; first compound 15.81 µM,0.266
same,relative viability,NCI-H2085; first compound 50 µM,0.255
same,relative viability,NCI-H2085; first compound 158.11 µM,0.242
same,relative viability,NCI-H2085; first compound 500 µM,0.257
same,relative viability,NCI-H2170; first compound 5 µM,0.586
same,relative viability,NCI-H2170; first compound 15.81 µM,0.566
same,relative viability,NCI-H2170; first compound 50 µM,0.612
same,relative viability,NCI-H2170; first compound 158.11 µM,0.461
same,relative viability,NCI-H2170; first compound 500 µM,0.167
same,relative viability,NCI-H2228; first compound 5 µM,0.559
same,relative viability,NCI-H2228; first compound 15.81 µM,0.469
same,relative viability,NCI-H2228; first compound 50 µM,0.437
same,relative viability,NCI-H2228; first compound 158.11 µM,0.231
same,relative viability,NCI-H2228; first compound 500 µM,0.0527
same,relative viability,NCI-H2347; first compound 5 µM,0.295
same,relative viability,NCI-H2347; first compound 15.81 µM,0.308
same,relative viability,NCI-H2347; first compound 50 µM,0.227
same,relative viability,NCI-H2347; first compound 158.11 µM,0.315
same,relative viability,NCI-H2347; first compound 500 µM,0.327
same,relative viability,NCI-H23; first compound 5 µM,0.725
same,relative viability,NCI-H23; first compound 15.81 µM,0.635
same,relative viability,NCI-H23; first compound 50 µM,0.621
same,relative viability,NCI-H23; first compound 158.11 µM,0.293
same,relative viability,NCI-H23; first compound 500 µM,0.017
same,relative viability,NCI-H322M; first compound 5 µM,0.248
same,relative viability,NCI-H322M; first compound 15.81 µM,0.245
same,relative viability,NCI-H322M; first compound 50 µM,0.257
same,relative viability,NCI-H322M; first compound 158.11 µM,0.23
same,relative viability,NCI-H322M; first compound 500 µM,0.0545
same,relative viability,NCI-H520; first compound 5 µM,0.188
same,relative viability,NCI-H520; first compound 15.81 µM,0.17
same,relative viability,NCI-H520; first compound 50 µM,0.202
same,relative viability,NCI-H520; first compound 158.11 µM,0.168
same,relative viability,NCI-H520; first compound 500 µM,0.149
same,relative viability,NCI-H647; first compound 5 µM,0.197
same,relative viability,NCI-H647; first compound 15.81 µM,0.144
same,relative viability,NCI-H647; first compound 50 µM,0.146
same,relative viability,NCI-H647; first compound 158.11 µM,0.0387
same,relative viability,NCI-H647; first compound 500 µM,0.0112
same,relative viability,NCI-H661; first compound 5 µM,0.863
same,relative viability,NCI-H661; first compound 15.81 µM,0.83
same,relative viability,NCI-H661; first compound 50 µM,0.798
same,relative viability,NCI-H661; first compound 158.11 µM,0.312
same,relative viability,NCI-H661; first compound 500 µM,0.155
same,relative viability,NCI-H838; first compound 5 µM,0.285
same,relative viability,NCI-H838; first compound 15.81 µM,0.237
same,relative viability,NCI-H838; first compound 50 µM,0.286
same,relative viability,NCI-H838; first compound 158.11 µM,0.261
same,relative viability,NCI-H838; first compound 500 µM,0.243
